Experimental findings from patent publication US8853235B2, “Polymorphs and salts of a kinase inhibitor” (Senhwa Biosciences, Inc., priority 2009, dated 2014) are described below.

Where “and” joins values, the source holds several entries; their conditions need not be identical. Equal values may be shown once.

Holding throughout (type): physicochemical
A short description of data set [1]: Determination of particle size distribution (Malvern Mastersizer). Conditions: for d50, 3 times / d90, 3 times: single measurements. As for the experimental part:
Particle size analysis of the pre-milled and post-milled TRIS and arginine salts was carried out using the Malvern Mastersizer, Model Micro Plus. Backgrounds were first measured using the appropriate vehicle solution as diluent (Dimethyl Siloxane). The samples were added drop-wise until a suitable obscuration value was achieved, and particle size distribution measured. A minimum of three analyses were made for each sample.

Data set [2] can be described thus: Intrinsic solubility / dissolution rate of salts and polymorphs (FIGS. 82-83). The conditions noted are these: qualitative; for ease of dissolution: FIGS. 82-83.
A short description of data set [3]: Short term accelerated stability study of Arginine and TRIS salts. The conditions noted are these: 40° C./75% RH; for change by XRPD and DSC: 4 week period; for HPLC impurity after storage: after 4 weeks. As for the experimental part: Arginine and TRIS salts of compound I prepared as described above were stored at 40° C./75% RH. Each sample was assessed at 0,1 week, 2 weeks and 4 weeks by XRPD, DSC and HPLC assess the stability of each salt.

Data set [4] is described as follows: Slurry of Arginine and TRIS salts to determine stability (competitive slurry). Conditions: for relative stability of the two forms: competitive slurry, MeOH/H2O (90:10) and EtOH/H2O (90:10); for form after slurry by XRPD: MeOH/H2O (90:10), temperature cycling 40° C. and RT, 4 hour periods, 5 days. The text has this: Both Arginine and TRIS salt forms of compound I prepared as described above were slurried in 2˜4 different solvents including aqueous mixes to further determine the stability of the new salt forms. The solids were then dried and analyzed by XRPD and Raman to check for changes in physical and/or chemical form.

Data set [5] in a line: Micronization of Arginine and TRIS salts, physical form check. Conditions: micronized vs pre-micronized. The text has this: Both Arginine and TRIS salt forms of compound I prepared as described above were micronized at Pharmaterials in preparation for PK studies. Particle size reduction was done using a Sturtevant Qualification Micronizer® (Sturtevant Inc. Hanover Mass., USA) with dry nitrogen gas as feed and grind gas. To avoid clogging of the venturi and feed nozzle, the polymorph was initially ground using a pestle and motor to break down large particles. Grinding was done at room temperature using the following settings: • Feed air pressure: 80 psi • Grind air pressure: 100 psi
The micronized polymorph was collected from the exhaust bag and put in a glass vial pending further analysis. The material was then analyzed for particle size distribution based on a method established and applied to each batch. […] The samples were also analyzed by HPLC to determine chemical purity.

Data set [6] in a line: Gravimetric Vapor Sorption (GVS) of sodium salt polymorphs. The conditions noted are these: for XRPD analysis of the post-GVS experiment sample: after GVS; for GVS desorption: sample retains water until: mass drops significantly there; for hydroscopicity by GVS: qualitative.
Data set [7] can be described thus: Storage, drying and light stability of sodium salt forms, by XRPD. The conditions noted are these: for physical change in light study by XRPD: 5 day light studies; for time in which material reverts to Form II: 5 day stability study, 40° C./75% RH; for physical change on storage by XRPD: about 80° C. over about 5 days.
Data set [8] can be described thus: Water solubility of compound (I) acid and its salts. The conditions noted are these: qualitative, acid form vs salts.
Data set [9] is described as follows: Solubility in organic solvents, sodium salt vs free acid (FIG. 81). The conditions noted are these: compared with the acid.

For the compound `O=C(O)c1ccc2c(c1)nc(Nc1cccc(Cl)c1)c1ccncc12` [Form XXII, 5-(3-chlorophenylamino)benzo[c][2,6]naphthyridine-8-carboxylic acid], in data set [1] (micronized), the “d50, Average” value is 6.0 μm; the “d90, Average” value is 10.5 μm; the “d50, 3 times” value was 6.12 μm and 6.03 μm and 5.99 μm; the “d90, 3 times” value is 10.72 μm and 10.51 μm and 10.41 μm. Besides, in data set [1] (pre-micronized), the “d50, Average” value was determined as 10.0 μm; the “d90, Average” value is 23.4 μm; the “d50, 3 times” value is 9.97 μm and 9.98 μm and 10.06 μm; the “d90, 3 times” value is 23.26 μm and 23.15 μm and 23.68 μm. Further, the ease of dissolution entry in data set [2] is given as “particularly easily dissolved”. In [3], the “change by XRPD and DSC” value was “no significant change”; the “HPLC impurity after storage” value was “no additional impurity”. Further, the “relative stability of the two forms” value in [4] is “more stable”. Further, in [5], the “DSC change after micronization” value is “no significant change” and the “XRPD change after micronization” value is given as “no significant change in crystalline structure”.

`O=C(O)c1ccc2c(c1)nc(Nc1cccc(Cl)c1)c1ccncc12` [Form XXI-B, 5-(3-chlorophenylamino)benzo[c][2,6]naphthyridine-8-carboxylic acid]: the “form after slurry by XRPD” value in [4] is on record as “complete conversion to Form XXI”.

Turning to `O=C(O)c1ccc2c(c1)nc(Nc1cccc(Cl)c1)c1ccncc12` [Form IV, 5-(3-chlorophenylamino)benzo[c][2,6]naphthyridine-8-carboxylic acid], the “GVS uptake of water on sorption” value in [6] (about 20-60% RH) is “about 1%”. Besides, the “GVS further rapid uptake” value in data set [6] (about 60-70% RH) is reported as “approximately 8%”. In data set [6], the “XRPD analysis of the post-GVS experiment sample” value (“XRPD analysis” below) is recorded as “amorphous content” and the “GVS desorption: sample retains water until” value is listed as “about 5%”. In data set [7], the “physical change in light study by XRPD” value is “no physical change”, the “time in which material reverts to Form II” value was no more than 24 h and the “physical change on storage by XRPD” value is given as “no physical change”. Besides, the form after drying entry in [7] (drying at 50° C.) was “converts to another crystalline polymorph”.

As for `O=C(O)c1ccc2c(c1)nc(Nc1cccc(Cl)c1)c1ccncc12` [Form XXI, 5-(3-chlorophenylamino)benzo[c][2,6]naphthyridine-8-carboxylic acid], in [1] (micronized), the “d50, Average” value came to 4.1 μm; the “d90, Average” value came to 8.0 μm; the “d50, 3 times” value is 3.98 μm and 4.04 μm and 4.14 μm; the “d90, 3 times” value is 7.90 μm and 7.94 μm and 8.13 μm. In addition, in [1] (pre-micronized), the “d50, Average” value is 21.6 μm; the “d90, Average” value is on record as 71.0 μm; the “d50, 3 times” value was 19.97 μm and 21.13 μm and 23.60 μm; the “d90, 3 times” value was 62.36 μm and 70.79 μm and 79.85 μm. Further, the ease of dissolution entry in data set [2] is on record as “particularly easily dissolved”. In [3], the “change by XRPD and DSC” value is “no significant change”; the “HPLC impurity after storage” value is on record as “no additional impurity”. Also, the “relative stability of the two forms” value in [4] is listed as “more stable”. In data set [5], the “DSC change after micronization” value is on record as “no significant change” and the “XRPD change after micronization” value is on record as “no significant change in crystalline structure”.

Turning to `O=C(O)c1ccc2c(c1)nc(Nc1cccc(Cl)c1)c1ccncc12` [Form XXII-B, 5-(3-chlorophenylamino)benzo[c][2,6]naphthyridine-8-carboxylic acid], the “form after slurry by XRPD” value in data set [4] is “complete conversion to Form XXII”.

With `O=C(O)c1ccc2c(c1)nc(Nc1cccc(Cl)c1)c1ccncc12` [Compound I, 5-(3-chlorophenylamino)benzo[c][2,6]naphthyridine-8-carboxylic acid], in [8], the water solubility entry is “very low”.

Turning to `O=C(O)c1ccc2c(c1)nc(Nc1cccc(Cl)c1)c1ccncc12` [Form I, 5-(3-chlorophenylamino)benzo[c][2,6]naphthyridine-8-carboxylic acid], in [2], the “solubility relative to other polymorphs” value is “significantly more soluble than other polymorphs”. For the same compound, the “solubility in organic solvents” value in data set [9] was “more soluble in organic solvents than the acid”. Moreover, the “physical form on storage” value in data set [7] (dry conditions less than 30° C.) was “stay amorphous”.

With `O=C(O)c1ccc2c(c1)nc(Nc1cccc(Cl)c1)c1ccncc12` [Form III, 5-(3-chlorophenylamino)benzo[c][2,6]naphthyridine-8-carboxylic acid], in [6], the “XRPD analysis” value is “amorphous content”, the “GVS desorption: sample retains water until” value turned out to be 5% and the “hydroscopicity by GVS” value was “hydroscopic”. The “GVS water absorbed on sorption” value in data set [6] (sorption) came to 11%. For the same compound, in data set [7], the “physical change in light study by XRPD” value is given as “no physical change”, the “time in which material reverts to Form II” value was no more than 24 h and the “physical change on storage by XRPD” value was “less crystalline appearance”.

In the case of `O=C(O)c1ccc2c(c1)nc(Nc1cccc(Cl)c1)c1ccncc12` [Form II, 5-(3-chlorophenylamino)benzo[c][2,6]naphthyridine-8-carboxylic acid], the “solubility relative to other polymorphs” value in [2] was “significantly more soluble than other polymorphs”. The “GVS uptake of water” value in [6] (20-70% RH) is “about 12%”. The GVS weight gain result in [6] (RH range of about 10% to about 70%) is “about 8%”. The “form conversion in the GVS cycle” value in data set [6] (about 10% to about 90% RH, repeated) is on record as “No further form conversion was observed”. Moreover, in data set [6], the “XRPD analysis” value is “amorphous content” and the “hydroscopicity by GVS” value is on record as “moderate”. In data set [7] (80° C. for about 24 hours and prolonged drying at 60° C.), the form after drying result is given as “converted to amorphous material”.

`O=C(O)c1ccc2c(c1)nc(Nc1cccc(Cl)c1)c1ccncc12` [Form VII, 5-(3-chlorophenylamino)benzo[c][2,6]naphthyridine-8-carboxylic acid]: the “stability by XRPD” value in data set [7] (ambient conditions and 40° C./75% relative humidity, seven days) is reported as “stable”.
